Laboratory results published in patent publication US20190191740A1, “Methods to Promote Growth and Improve Feed Conversion in Animals” (Nutrivert LLC, priority 2016, published 2019).
Bridge positions count the residues as written; N and C are the ends. Square brackets hold non-standard residues; d marks the D form. Peptide text beside a SMILES is read from it. * marks the point of attachment. Ileψ(thiazoline)Cys = CC[C@H](C)[C@H](N)C1=N[C@H](C(=O)*)CS1; dOrn = NCCC[C@@H](N)C(=O)O

How the values were obtained:
[1] = system: pigs; assay: Pig feed conversion experiment (Example 3); assay type: in vivo; conditions: for feed conversion (total consumed feed / total weight gain): day 0 through day 26
Method: The objective of the experiment for Example 3 was to evaluate if MDP analogs promote growth in mammals as they do in birds. Pigs were selected as an animal model for the mammalian study. This experiment was designed to contrast the effect of a low dose of 0.1 mg mifamurtide/kg feed on growth and feed conversion to untreated control pigs and to pigs treated with 50 mg carbadox/kg feed, an industry-standard AGP used in pigs.
Pigs were weaned at 3-4 weeks of age and allotted based on weight and gender to one of 15 nursery pens with 6 pigs per pen (90 total pigs). Sex of the pigs was balanced within pens in a weight block. Dietary treatments were randomly assigned within weight blocks to pens of pigs. Three dietary treatments were administered in the phase 1 and 2 diets. Phase 1 diets were fed from day 0-14 post-weaning. On day 14 post-weaning, pigs were switched to phase 2 diets, which were fed until day […]. Treatment 1 was the untreated negative control diet without any growth-promoting supplement. […] Feed intake was monitored for each pen and weigh period. […]
The overall (true) feed conversion for each group was determined by dividing total consumed feed by total weight gains of all pigs of each treatment. […] Body weight gain and calculated feed consumption data were analyzed by one-way ANOVA and Tukey Honest True Difference correction for multiple comparisons. For determination of feed conversion of individual pigs, calculated total feed consumption of each pig was divided by total measured weight gain of the pig. […] Group differences in feed conversion were evaluated by non-parametric Mann Whitney U test.
Individual daily feed consumption per pig was computed by a mathematical model from individual body weights determined over the course of the 26-day experiment, and from total weighed feed consumed by each pen. […] The model first linearly interpolates body weights between the actual measured body weights of the pigs. Based on the calculated daily body weight, the daily feed consumption is then calculated as 4% of body weight. […]

[2] = system: broiler chickens; assay: Broiler chicken feed conversion experiment (Example 1, with microbiome seed chickens); assay type: in vivo, chickens (male Ross×Ross); conditions: for feed conversion (total consumed feed / total weight gain): days 0 through day 32
Method: The primary objective of this experiment was to evaluate if supplementation of feed with mifamurtide at 1.9 mg/kg feed improves feed conversion in broiler chickens, i.e., if broiler chickens require less feed for the same amount of gain in body weight. A secondary objective was to evaluate whether any such improvement compares favorably or unfavorably to improvement seen with bacitracin, an industry standard AGP. A third objective was to evaluate if fast versus slow acquisition of a healthy microbial flora (microbiome) by the experimental chickens influenced feed conversion. A fourth objective was to determine whether feed supplementation with bacitracin, a commonly used industry-standard antibiotic growth promoter, interacted with a potential influence of microbiome acquisition kinetics on feed conversion.
Two hundred day-of-hatch male Ross×Ross chicks were randomly assigned at 50 each to one of four groups: 1 negative control without microbiome seed chickens; 2 negative control with microbiome seed chickens; 3 bacitracin at 50 mg/kg of feed with microbiome seed chickens; or 4 mifamurtide at 1.9 mg/kg of feed with microbiome seed chickens. The mifamurtide was first mixed with 20 g Lactose (Lactochem Fine Powder, DFE Pharma, Germany), then mixed with corn meal to produce a 2% supplement to prepare the feed, which was fed to the birds ad libitum.
The microbiome seed chickens were healthy 21-day-old birds that had been raised on litter of fresh unused pine shavings, and had not been in contact with any other chickens, and thus had microbiomes characteristic of healthy grown birds. At start of the experiment, groups 2-4 of 50 study chicks were exposed to 10 microbiome seed chickens, which were removed on day 5 and were not counted in study results. The objective of the microbiome seed chickens was to rapidly induce a healthy microbiome in the freshly hatched experimental chickens. In contrast, the development of a normal healthy microbiome required more time in the control group without exposure to microbiome seed chickens.
All chicks were reared with a normal broiler starter in mash form, supplemented with amprolium at 113.5 mg/kg. Each group was raised in 5×10 feet floor pens at a stocking density of 1.0 square foot per bird on fresh pine shavings, in a solid-sided barn, with concrete floors, and under ambient humidity. Feed and water were available ad libitum throughout the trial. Thermostatically controlled gas heaters were the primary heat source for the barn, if needed. One heat lamp per pen provided supplemental heat during brooding. Fans were used to cool birds. […] Individual body weights of all birds were recorded on days 8, 21, and 32. […]
The overall (true) feed conversion for each group was determined by dividing total consumed feed by total weight gains of all chickens of the group. […] Calculated feed consumed by birds that died before termination of the experiment was subtracted from total weighed feed. Body weight gain and calculated feed consumption data were analyzed by one-way ANOVA and Tukey Honest True Difference correction for multiple comparisons, and graphs show means±95% confidence intervals. For determination of feed conversion of individual birds, calculated total feed consumption per bird was divided by total weight gain of the bird. […] Group differences in feed conversion were evaluated by non-parametric Mann Whitney U test, and error bars indicate 25-75 percentiles of calculated feed conversions of individual birds. […]

[3] = system: broiler chickens; assay: Broiler chicken growth and feed conversion experiment (Example 2, without microbiome seed chickens); assay type: in vivo, chickens (male Cobb×Cobb); conditions: for growth rate (percent body weight gain) / increased growth over the 236.2% rate of untreated control chickens: day 15 to 32; for feed conversion relative to untreated control chickens: no microbiome seed chickens
Method: The objective of the experiment was to compare the effect of 1) a low dose of 0.1 mg mifamurtide/kg feed; and 2) an intermediate dose of 0.57 mg romurtide/kg feed, a different MDP analog, to 50 mg bacitracin/kg feed and non-supplemented feed (untreated control chickens). Both the effect on feed conversion and on growth rates, i. e. the dual criteria for growth promotion, were examined.
Two-hundred day-of-hatch male Cobb×Cobb chickens were randomly assigned at 50 each to one of four groups: no feed supplementation; bacitracin at 50 mg/kg of feed; mifamurtide at 0.1 mg/kg of feed; or romurtide at 0.57 mg/kg of feed. Microbiome seed chickens were not used, and individual body weights of all birds were recorded on days 15 and 32. All other experimental parameters followed Example 1.

Molecule: COC(=O)N/N=C/c1c[n+]([O-])c2ccccc2[n+]1[O-] [carbadox]
- more feed required for the same amount of weight gain than treatment with 0.1 mg/kg feed mifamurtide ([1]; carbadox 50 mg/kg feed until day 14, 25 mg/kg feed after day 14): 14.6%
- feed conversion (total consumed feed / total weight gain) ([1]; carbadox 50 mg/kg feed until day 14, 25 mg/kg feed after day 14, weaned pigs): 1.692

Molecule: CC[C@H](C)[C@H](N)C1=N[C@H](C(=O)N[C@@H](CC(C)C)C(=O)N[C@H](CCC(=O)O)C(=O)N[C@H](C(=O)N[C@H]2CCCCNC(=O)[C@H](CC(N)=O)NC(=O)[C@@H](CC(=O)O)NC(=O)[C@H](Cc3cnc[nH]3)NC(=O)[C@@H](Cc3ccccc3)NC(=O)[C@H]([C@@H](C)CC)NC(=O)[C@@H](CCCN)NC2=O)[C@@H](C)CC)CS1 [bacitracin] ({Ileψ(thiazoline)Cys}-L[dE]IK[dOrn]I[dF]H[dD]N; lactam 4-C)
- improvement in feed conversion over non-microbiome seeded untreated chickens ([2]; 50 mg/kg bacitracin treated, microbiome-seeded chickens): 15.6%
- more feed required than mifamurtide supplementation (1.9 mg/kg feed) for the same amount of weight gain ([2]; bacitracin at 50 mg/kg feed, with microbiome seed chickens, days 0-32): 13.6%
- feed conversion (total consumed feed / total weight gain) ([2]; bacitracin at 50 mg/kg feed, with microbiome seed chickens): 1.823
- body weights on days 15 and 32, body weight gains and feed intake versus the three other treatments ([3]; bacitracin at 50 mg/kg feed): significantly lower
- feed conversion rates versus the three other treatments ([3]; bacitracin at 50 mg/kg feed): higher feed conversion rates
- effect on growth and feed conversion ([3]; bacitracin at 50 mg/kg feed, optimal husbandry, absence of a pathogenic microflora): profoundly negative effect

Molecule: mifamurtide
- feed conversion (total consumed feed / total weight gain) ([2]; 1.9 mg mifamurtide/kg feed, with microbiome seed chickens): 1.605 g feed/g body weight gain
- total feed consumed per chicken versus negative controls ([2]; mifamurtide 1.9 mg/kg feed, day 0 through day 32 (FIG. 1B)): consumed less feed
- growth rate (percent body weight gain) ([3]; mifamurtide at 0.1 mg/kg feed): 259.5%
- increased growth over the 236.2% rate of untreated control chickens ([3]; mifamurtide at 0.1 mg/kg feed): 9.9%
- feed conversion relative to untreated control chickens ([3]; mifamurtide at 0.1 mg/kg feed, optimal husbandry): did not decrease feed conversion
- feed conversion (total consumed feed / total weight gain) ([1]; 0.1 mg mifamurtide/kg feed, weaned pigs): 1.476

Molecule: CCCCCCCCCCCCCCCCCC(=O)NCCCC[C@H](NC(=O)CC[C@@H](NC(=O)[C@H](C)NC(=O)[C@@H](C)O[C@H]1[C@H](O)[C@@H](CO)OC(O)[C@@H]1NC(C)=O)C(N)=O)C(=O)O (some centres unmarked) [romurtide]
- growth rate (percent body weight gain) ([3]; romurtide at 0.57 mg/kg feed): 267.4%
- increased growth over the 236.2% rate of untreated control chickens ([3]; romurtide at 0.57 mg/kg feed): 13.2%
- feed conversion relative to untreated control chickens ([3]; romurtide at 0.57 mg/kg feed, optimal husbandry): did not decrease feed conversion
